{
  "source": "patent US12502362B2",
  "about": "“Inhibitors of nucleotidyltransferase superfamily enzymes as antibiotics” (priority 2017, dated 2025)",
  "key": {"[1]": {"tested_on": "S. aureus (ATCC 29213)", "experiment": "MIC80 on S. aureus", "format": "cell-based, Staphylococcus aureus", "conditions": "≥80% growth inhibition"}, "[2]": {"tested_on": "Staphylococcus epidermidis", "format": "cell-based", "method": "(§1) It was also tested whether compounds #63 and #285 can inhibit other coagulase-negative Staphylococcus (CNS) including S. epidermidis, S. hominis, etc. […]."}, "[3]": {"tested_on": "Staphylococcus hominis", "format": "cell-based", "method": "as §1"}, "[4]": {"tested_on": "Staphylococcus saprophyticus (ATCC BAA-750)", "experiment": "MIC80 on S. saprophyticus", "format": "cell-based", "conditions": "S. saprophyticus ATCC BAA-750, read-out: MIC80 S. sapro", "method": "To further characterize the compounds, the minimal inhibitory concentration (MIC80) were determined for selected compounds. MIC80 is defined as the compound concentration at which ≥80% bacterial growth is inhibited compare to untreated controls. Meanwhile, for the selected compounds, cytotoxicity assays (CC50) were performed on a HepG2-derived hepatoblastoma cell line (HEPDES19). […] For CC50 evaluation, soluble tetrazolium dye (MTS) was used to measure mitochondrial toxicity in a human hepatoblastoma cell line (18). The bacteria (E. coli, S. saprophyticus and A. baumannii) used in MIC80 measurements were the same as that in the primary screening, but for Staphylococcus, S. aureus is used primarily because it is a common pathogen in Staphylococcaeae family, while S. saprophyticus is part of the normal human flora."}, "[5]": {"tested_on": "S. aureus ATCC strains and MRSA", "format": "cell-based, Staphylococcus aureus"}, "[6]": {"tested_on": "Ps. aeruginosa (ATCC 27853)", "experiment": "MIC80 on Ps. aeruginosa", "format": "cell-based", "conditions": "Pseudomonas aeruginosa, ATCC27853"}, "[7]": {"tested_on": "E. coli (ATCC 35218)", "experiment": "microbe, parasite or virus in culture", "format": "cell-based"}},
  "note": "Where two headings read alike, the source gives them in different places.",
  "data": [
    {"smiles": "O=C(O)c1cn(C2CC2)c2cc(N3CCNCC3)c(F)cc2c1=O", "note": "[Compound 67, Ciprofloxacin]", "values": [
      {"measurement": "MIC80 S. aureus", "setting": "[1]; S. aureus ATCC 29213 (MSSA)", "result": "<2.6", "unit": "µM"},
      {"measurement": "MIC80", "setting": "[1]; Staphylococcus aureus, ATCC 29213 / MSSA, read-out: MIC80 S. aureus, S. aureus ATCC 29213 (MSSA)", "result": "< 2.9", "unit": "µM"},
      {"measurement": "Antibiotic susceptibility", "setting": "[2]", "result": "R and S"},
      {"measurement": "Antibiotic susceptibility", "setting": "[3]", "result": "R and S"},
      {"measurement": "MIC80", "setting": "[4]", "result": "<2.9", "unit": "µM"},
      {"measurement": "MIC80", "setting": "[4]; Staphylococcus saprophyticus, ATCCBAA750", "result": "< 2.9", "unit": "µM"},
      {"measurement": "Antibiotic susceptibility", "setting": "[5]; S. aureus ATCC 25923", "result": "S"},
      {"measurement": "Antibiotic susceptibility", "setting": "[5]; S. aureus ATCC 29213", "result": "S"},
      {"measurement": "Antibiotic susceptibility", "setting": "[5]; S. aureus ATCC BAA 976", "result": "S"},
      {"measurement": "Antibiotic susceptibility", "setting": "[5]; S. aureus ATCC BAA 977", "result": "S"},
      {"measurement": "Antibiotic susceptibility", "setting": "[5]; S. aureus ATCC BAA 1026", "result": "R"},
      {"measurement": "Antibiotic susceptibility", "setting": "[5]; Sa1 (MRSA)", "result": "R"},
      {"measurement": "Antibiotic susceptibility", "setting": "[5]; Sa2 (MRSA)", "result": "R"},
      {"measurement": "Antibiotic susceptibility", "setting": "[5]; Sa3 (MRSA)", "result": "R"},
      {"measurement": "Antibiotic susceptibility", "setting": "[5]; Sa5 (MRSA)", "result": "R"},
      {"measurement": "Antibiotic susceptibility", "setting": "[5]; Sa6 (MRSA)", "result": "R"},
      {"measurement": "Antibiotic susceptibility", "setting": "[5]; Sa7 (MRSA)", "result": "S"},
      {"measurement": "Antibiotic susceptibility", "setting": "[5]; Sa8 (MRSA)", "result": "R"},
      {"measurement": "Antibiotic susceptibility", "setting": "[5]; Sa9 (MRSA)", "result": "R"},
      {"measurement": "Antibiotic susceptibility", "setting": "[5]; Sa10 (MRSA)", "result": "R"},
      {"measurement": "Antibiotic susceptibility", "setting": "[5]; Sa11 (MRSA)", "result": "R"},
      {"measurement": "Antibiotic susceptibility", "setting": "[5]; Sa12 (MRSA)", "result": "R"},
      {"measurement": "Antibiotic susceptibility", "setting": "[5]; Sa14 (MRSA)", "result": "R"},
      {"measurement": "Antibiotic susceptibility", "setting": "[5]; Sa15 (MRSA)", "result": "R"},
      {"measurement": "Antibiotic susceptibility", "setting": "[5]; Sa16 (MRSA)", "result": "R"},
      {"measurement": "Antibiotic susceptibility", "setting": "[5]; Sa17 (MRSA)", "result": "R"},
      {"measurement": "Antibiotic susceptibility", "setting": "[5]; Sa18 (MRSA)", "result": "R"},
      {"measurement": "Antibiotic susceptibility", "setting": "[5]; Sa19 (MRSA)", "result": "S"},
      {"measurement": "Antibiotic susceptibility", "setting": "[5]; Sa20 (MRSA)", "result": "R"},
      {"measurement": "Antibiotic susceptibility", "setting": "[5]; Sa21 (MRSA)", "result": "S"},
      {"measurement": "Antibiotic susceptibility", "setting": "[5]; Sa22 (MRSA)", "result": "S"},
      {"measurement": "Antibiotic susceptibility", "setting": "[5]; Sa23 (MRSA)", "result": "S"},
      {"measurement": "MIC80", "setting": "[6]", "result": "< 2.9", "unit": "µM"},
      {"measurement": "MIC80 E. coli", "setting": "[7]; E. coli ATCC 35218", "result": "<2.9", "unit": "µM"},
      {"measurement": "MIC80", "setting": "[7]; Escherichia coli, ATCC35218, read-out: MIC80 E. coli, E. coli ATCC 35218", "result": "< 2.9", "unit": "µM"}
    ]}
  ]
}
